Key:
MAPK14 (human) [1] = target: MAPK14 (human) (UniProt Q16539); experiment: Inhibition of p38 Kinase Activity
MAPK14 (human) [2] = target: MAPK14 (human) (UniProt Q16539); experiment: Inhibition of IL-1 Production in LPS Stimulated PBMC
MAPK14 (human) [3] = target: MAPK14 (human) (UniProt Q16539); experiment: Inhibition of TNF-alpha Production in LPS Stimulated PBMC
MAPK14 (human) [4] = target: MAPK14 (human) (UniProt Q16539); experiment: Inhibition of TNF-alpha Production in LPS Stimulated Whole Blood Cells
MAPK14 (human) [5] = target: MAPK14 (human) (UniProt Q16539); experiment: Inhibition of IL-1 Production in LPS Whole Blood Cells
MAPK14 (human) [6] = target: MAPK14 (human) (UniProt Q16539); experiment: Inhibition of IL-6 Production in Whole Blood Cells

Sequence of MAPK14 (human) (Q16539 whole entry, looked up): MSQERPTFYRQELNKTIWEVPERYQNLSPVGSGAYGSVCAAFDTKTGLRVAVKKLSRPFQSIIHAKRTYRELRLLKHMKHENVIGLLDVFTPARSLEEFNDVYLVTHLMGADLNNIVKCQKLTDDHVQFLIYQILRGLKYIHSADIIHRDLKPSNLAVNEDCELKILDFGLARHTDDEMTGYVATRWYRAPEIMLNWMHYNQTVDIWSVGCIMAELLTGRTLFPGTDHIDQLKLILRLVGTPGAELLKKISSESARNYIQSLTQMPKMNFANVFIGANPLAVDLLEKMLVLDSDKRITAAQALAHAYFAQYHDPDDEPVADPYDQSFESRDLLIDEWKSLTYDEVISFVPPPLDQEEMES

IC50 (MAPK14 (human) [1]) [nM]	IC50 (MAPK14 (human) [2]) [nM]	IC50 (MAPK14 (human) [3]) [nM]	IC50 (MAPK14 (human) [4]) [nM]	IC50 (MAPK14 (human) [5]) [nM]	IC50 (MAPK14 (human) [6]) [nM]	SMILES
2	20	50	55	118	180	Cc1cc(F)ccc1-c1nc(N(C(N)=O)c2c(Cl)cccc2Cl)ccc1CO
27	27	10	90	57	75	Cc1cc(F)ccc1-c1nc(N(C(N)=O)c2c(F)cccc2F)ccc1CO
56	21	140	64	420	250	Cc1ccccc1-c1nc(N(C(N)=O)c2c(Cl)cccc2Cl)ccc1CO
